Experimental data as given in patent publication US9518060B2, “Substituted pyrrolo[3,4-c]pyrazoles as PKC kinase inhibitors” (PFIZER INC., priority 2007, dated 2016).

Biological target: Protein Kinase C beta 2 (PKCβII) (Homo sapiens (Human), UniProt P05771)
Assay: PKCβII coupled spectrophotometric kinase assay (PK/LDH, NADH absorbance at 340 nm)
Assay type: biochemical
Details: apparent Ki, ATP competitive inhibition model (Morrison equation); 0.1 mM ATP, 5 nM PKC, 30° C.; read-out: Ki app
Method in brief: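 PK/LDH-coupled ADP detection (NADH loss at 340 nm), 20 min at 30° C, pH 7.4; 5 nM PKCβII, 0.15 mM pseudosubstrate peptide, 0.1 mM ATP, with CaCl2, PS and PMA activators, 7.5% DMSO. Apparent Ki from initial velocities fitted to ATP-competitive Morrison model over 10,000–0.169 nM inhibitor.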

Chain of Protein Kinase C beta 2 (PKCβII) (P05771 other isoform, or with tags, fused parts or gaps): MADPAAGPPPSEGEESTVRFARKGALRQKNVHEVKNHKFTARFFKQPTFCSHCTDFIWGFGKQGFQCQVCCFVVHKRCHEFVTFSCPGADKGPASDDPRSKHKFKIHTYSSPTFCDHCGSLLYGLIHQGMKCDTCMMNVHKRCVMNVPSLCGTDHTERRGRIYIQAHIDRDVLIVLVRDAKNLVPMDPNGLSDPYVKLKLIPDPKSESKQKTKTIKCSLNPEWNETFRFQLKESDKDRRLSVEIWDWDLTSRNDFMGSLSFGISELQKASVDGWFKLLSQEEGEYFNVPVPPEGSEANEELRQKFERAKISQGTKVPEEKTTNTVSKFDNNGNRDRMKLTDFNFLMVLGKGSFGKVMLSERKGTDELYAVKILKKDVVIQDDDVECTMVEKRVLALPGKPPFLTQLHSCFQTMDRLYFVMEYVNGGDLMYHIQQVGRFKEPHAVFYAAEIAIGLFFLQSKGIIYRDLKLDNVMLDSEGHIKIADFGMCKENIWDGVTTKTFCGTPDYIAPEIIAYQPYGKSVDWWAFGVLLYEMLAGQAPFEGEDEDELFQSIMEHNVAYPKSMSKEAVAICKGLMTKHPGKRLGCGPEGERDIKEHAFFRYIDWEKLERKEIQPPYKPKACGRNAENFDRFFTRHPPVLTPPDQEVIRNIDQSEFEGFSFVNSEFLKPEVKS

| Ki | Structure (SMILES) |
| --- | --- |
| 26 nM | CCOc1ncc(F)c(Nc2n[nH]c3c2CN(C(=O)N2C[C@@H]4CCCN4C[C@@H]2C(C)C)C3(C)C)n1 [Example K20, N-(2-ethoxy-5-fluoropyrimidin-4-yl)-5-{[(3S,8aS)-3-isopropylhexahydropyrrolo[1,2-a]pyrazin-2(1H)-yl]carbonyl}-6,6-dimethyl-1,4,5,6-tetrahydropyrrolo[3,4-c]pyrazol-3-amine] |
| < 10 nM | CCOc1ncc(F)c(Nc2n[nH]c3c2CN(C(=O)N2C[C@@H](C)N(C4CCOCC4)C[C@@H]2C)C3(C)C)n1 [Example K21, 5-{[(2S,5R)-2,5-dimethyl-4-(tetrahydro-2H-pyran-4-yl)piperazin-1-yl]carbonyl}-N-(2-ethoxy-5-fluoropyrimidin-4-yl)-6,6-dimethyl-1,4,5,6-tetrahydropyrrolo[3,4-c]pyrazol-3-amine] |
| 15.3 nM | CCOc1ncc(F)c(Nc2n[nH]c3c2CN(C(=O)N2C[C@@H](C)N(CC4(O)CCOCC4)C[C@@H]2C)C3(C)C)n1 [Example K22, 4-[((2R,5S)-4-{[3-[(2-ethoxy-5-fluoropyrimidin-4-yl)amino]-6,6-dimethyl-4,6-dihydropyrrolo[3,4-c]pyrazol-5(1H)-yl]carbonyl}-2,5-dimethylpiperazin-1-yl)methyl]tetrahydro-2H-pyran-4-ol] |
| < 10 nM | CCOc1ncc(F)c(Nc2n[nH]c3c2CN(C(=O)N2CC(CCO)N(C)C[C@@H]2C)C3(C)C)n1 (stereo partly drawn) [Example K23, 2-((5S)-4-{[3-[(2-ethoxy-5-fluoropyrimidin-4-yl)amino]-6,6-dimethyl-4,6-dihydropyrrolo[3,4-c]pyrazol-5(1H)-yl]carbonyl}-1,5-dimethylpiperazin-2-yl)ethanol] |
| 16.8 nM | CCOc1ncc(F)c(Nc2n[nH]c3c2CN(C(=O)C2(F)CCN(C)CC2)C3(C)C)n1 [Example L1, N-(2-ethoxy-5-fluoropyrimidin-4-yl)-5-[(4-fluoro-1-methylpiperidin-4-yl)carbonyl]-6,6-dimethyl-1,4,5,6-tetrahydropyrrolo[3,4-c]pyrazol-3-amine] |
| 168 nM | COCCOc1ncc(F)c(Nc2n[nH]c3c2CN(C(=O)C2(F)CCN(C)CC2)C3(C)C)n1 [Example L2, N-[5-fluoro-2-(2-methoxyethoxy)pyrimidin-4-yl]-5-[(4-fluoro-1-methylpiperidin-4-yl)carbonyl]-6,6-dimethyl-1,4,5,6-tetrahydropyrrolo[3,4-c]pyrazol-3-amine] |
| 58.6 nM | COCCCOc1ncc(F)c(Nc2n[nH]c3c2CN(C(=O)C2(F)CCN(C)CC2)C3(C)C)n1 [Example L3, N-[5-fluoro-2-(3-methoxypropoxy)pyrimidin-4-yl]-5-[(4-fluoro-1-methylpiperidin-4-yl)carbonyl]-6,6-dimethyl-1,4,5,6-tetrahydropyrrolo[3,4-c]pyrazol-3-amine] |
| 1.71 nM | CN1CCC(F)(C(=O)N2Cc3c(Nc4nc(OCC(F)(F)F)ncc4F)n[nH]c3C2(C)C)CC1 [Example L4, 5-[(4-fluoro-1-methylpiperidin-4-yl)carbonyl]-N-[5-fluoro-2-(2,2,2-trifluoroethoxy)pyrimidin-4-yl]-6,6-dimethyl-1,4,5,6-tetrahydropyrrolo[3,4-c]pyrazol-3-amine] |
| 129 nM | CCOc1ncc(F)c(Nc2n[nH]c3c2CN(C(=O)C2CCN(CCC(F)(F)F)CC2)C3(C)C)n1 [Example L5, N-(2-ethoxy-5-fluoropyrimidin-4-yl)-6,6-dimethyl-5-{[1-(3,3,3-trifluoropropyl)piperidin-4-yl]carbonyl}-1,4,5,6-tetrahydropyrrolo[3,4-c]pyrazol-3-amine] |
| 181 nM | CCOc1ncc(F)c(Nc2n[nH]c3c2CN(C(=O)C2CCN(C4CCOCC4)CC2)C3(C)C)n1 [Example L6, N-(2-ethoxy-5-fluoropyrimidin-4-yl)-6,6-dimethyl-5-{[1-(tetrahydro-2H-pyran-4-yl)piperidin-4-yl]carbonyl}-1,4,5,6-tetrahydropyrrolo[3,4-c]pyrazol-3-amine] |
| 4.24 nM | CCOc1ccnc(Nc2n[nH]c3c2CN(C(=O)N2C[C@@H](C)N(C)C[C@@H]2C)C3(C)C)n1 [Example M1, N-(4-ethoxypyrimidin-2-yl)-6,6-dimethyl-5-{[(2S,5R)-2,4,5-trimethylpiperazin-1-yl]carbonyl}-1,4,5,6-tetrahydropyrrolo[3,4-c]pyrazol-3-amine] |
| 16.1 nM | CCOc1ccnc(Nc2n[nH]c3c2CN(C(=O)N2C[C@@H](C)N(CCCOC)C[C@@H]2C)C3(C)C)n1 [Example M2, N-(4-ethoxypyrimidin-2-yl)-5-{[(2S,5R)-4-(3-methoxypropyl)-2,5-dimethylpiperazin-1-yl]carbonyl}-6,6-dimethyl-1,4,5,6-tetrahydropyrrolo[3,4-c]pyrazol-3-amine] |
| < 10 nM | COCc1ncc(F)c(Nc2n[nH]c3c2CN(C(=O)N2C[C@@H](C)N(CC4CCOCC4)C[C@@H]2C)C3(C)C)n1 [Example N1, 5-{[(2S,5R)-2,5-dimethyl-4-(tetrahydro-2H-pyran-4-ylmethyl)piperazin-1-yl]carbonyl}-N-[5-fluoro-2-(methoxymethyl)pyrimidin-4-yl]-6,6-dimethyl-1,4,5,6-tetrahydropyrrolo[3,4-c]pyrazol-3-amine] |
